Where “and” joins values, the source holds several entries; their conditions need not be identical. Equal values may be shown once. Inconclusive results and toxic doses are left out. The calls were made as follows: active = survival T/C of 150% or more; inactive = T/C below 125% in these data.
Tested on: CD2F1 mice, L1210 leukemia ip, survival T/C
Test: NCI In Vivo Anticancer Drug Screen. Data for tumor model L1210 Leukemia (intraperitoneal) in CD2F1 (CDF1) mice
Settings: higher = longer survival
Procedure, shortened: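 Implant tumor; dose compound or vehicle; measure endpoint in both groups; report treated divided by control.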

[1] = endpoint: mean survival time, dose: 100.0 mg/kg/injection, schedule: Q04DX003 (ip), vehicle: saline
[2] = endpoint: mean survival time, dose: 100.0 mg/kg/injection, schedule: Q04DX003 (ip), vehicle: saline with Tween-80
[3] = endpoint: mean survival time, dose: 200.0 mg/kg/injection, schedule: Q04DX003 (ip), vehicle: saline with Tween-80
[4] = endpoint: mean survival time, dose: 400.0 mg/kg/injection, schedule: Q04DX003 (ip), vehicle: saline with Tween-80
[5] = endpoint: mean survival time, dose: 25.0 mg/kg/injection, schedule: Q04DX003 (ip), vehicle: saline with Tween-80
[6] = endpoint: mean survival time, dose: 50.0 mg/kg/injection, schedule: Q04DX003 (ip), vehicle: saline with Tween-80
[7] = endpoint: mean survival time, dose: 12.5 mg/kg/injection, schedule: Q01DX009 (ip), vehicle: saline with Tween-80
[8] = endpoint: mean survival time, dose: 100.0 mg/kg/injection, schedule: Q01DX009 (ip), vehicle: saline with Tween-80
[9] = endpoint: mean survival time, dose: 100.0 mg/kg/injection, schedule: Q01DX001 (ip), vehicle: saline with Tween-80
[10] = endpoint: mean survival time, dose: 200.0 mg/kg/injection, schedule: Q01DX009 (ip), vehicle: saline with Tween-80
[11] = endpoint: mean survival time, dose: 400.0 mg/kg/injection, schedule: Q01DX009 (ip), vehicle: saline with Tween-80
[12] = endpoint: mean survival time, dose: 6.25 mg/kg/injection, schedule: Q01DX009 (ip), vehicle: saline with Tween-80
[13] = endpoint: mean survival time, dose: 6.25 mg/kg/injection, schedule: Q04DX003 (ip), vehicle: saline with Tween-80
[14] = endpoint: mean survival time, dose: 12.5 mg/kg/injection, schedule: Q04DX003 (ip), vehicle: saline with Tween-80

Measured: T/C

CCOC(=O)C(N)CSSCC(N)C(=O)OCC (configuration not stated)
inactive: [1] 100 % of control | endpoint: mean survival time, dose: 200.0 mg/kg/injection, schedule: Q04DX003 (ip), vehicle: saline 102 % of control | endpoint: mean survival time, dose: 400.0 mg/kg/injection, schedule: Q04DX003 (ip), vehicle: saline 97 % of control

CC(=O)c1ccc2c(c1)-c1ccc(C(C)=O)cc1-2
inactive: [2] 86 % of control | [3] 86 % of control | [4] 90 % of control

Cc1ncc(C[P+](c2ccccc2)(c2ccccc2)c2ccccc2)c(C)c1O
inactive: endpoint: mean survival time, dose: 75.0 mg/kg/injection, schedule: Q01DX001 (ip), vehicle: saline 102 % of control

O=C(CC(=O)C(F)(F)C(F)(F)C(F)(F)F)C(F)(F)F.O=C(CC(=O)C(F)(F)C(F)(F)C(F)(F)F)C(F)(F)F.[Cu]
inactive: endpoint: mean survival time, dose: 3.13 mg/kg/injection, schedule: Q04DX002 (ip), vehicle: saline with Tween-80 90 % of control | endpoint: mean survival time, dose: 6.25 mg/kg/injection, schedule: Q04DX002 (ip), vehicle: saline with Tween-80 87 % of control | endpoint: mean survival time, dose: 12.5 mg/kg/injection, schedule: Q04DX002 (ip), vehicle: saline with Tween-80 102 % of control | endpoint: mean survival time, dose: 25.0 mg/kg/injection, schedule: Q04DX002 (ip), vehicle: saline with Tween-80 98 % of control | endpoint: median survival time, dose: 25.0 mg/kg/injection, schedule: Q04DX002 (ip), vehicle: saline with Tween-80 111 % of control

S=c1nc(-c2ccncc2)[nH][nH]1
inactive: endpoint: mean survival time, dose: 25.0 mg/kg/injection, schedule: Q01DX009 (ip), vehicle: saline sonified 107 % of control | endpoint: mean survival time, dose: 50.0 mg/kg/injection, schedule: Q01DX009 (ip), vehicle: saline sonified 98 % of control | endpoint: mean survival time, dose: 100.0 mg/kg/injection, schedule: Q01DX009 (ip), vehicle: saline sonified 107 % of control | [2] 100 % of control

Cc1cccc([N+](=O)[O-])n1
inactive: [5] 109 % of control | [6] 95 % of control | [2] 98 % of control

C[Si](OP(=O)(O[Si](C)(c1ccccc1)c1ccccc1)N(CCCl)CCCl)(c1ccccc1)c1ccccc1
inactive: endpoint: mean survival time, dose: 15.63 mg/kg/injection, schedule: Q01DX001 (ip), vehicle: distilled water + Tween-80 104 % of control | endpoint: mean survival time, dose: 31.25 mg/kg/injection, schedule: Q01DX001 (ip), vehicle: distilled water + Tween-80 97 % of control | endpoint: mean survival time, dose: 62.5 mg/kg/injection, schedule: Q01DX001 (ip), vehicle: distilled water + Tween-80 101 % of control | endpoint: mean survival time, dose: 125.0 mg/kg/injection, schedule: Q01DX001 (ip), vehicle: distilled water + Tween-80 95 % of control | endpoint: mean survival time, dose: 250.0 mg/kg/injection, schedule: Q01DX001 (ip), vehicle: distilled water + Tween-80 97 % of control | endpoint: mean survival time, dose: 500.0 mg/kg/injection, schedule: Q01DX001 (ip), vehicle: distilled water + Tween-80 115 % of control

O=c1cc(O)cnn1C1OC(CO)C(O)C1O (configuration not stated)
inactive: endpoint: mean survival time, dose: 25.0 mg/kg/injection, schedule: Q01DX009 (ip), vehicle: water 118 % of control and 110 % of control | endpoint: mean survival time, dose: 50.0 mg/kg/injection, schedule: Q01DX009 (ip), vehicle: water 114 % of control and 117 % of control and 112 % of control | endpoint: mean survival time, dose: 100.0 mg/kg/injection, schedule: Q01DX009 (ip), vehicle: water 118 % of control (2×) and 108 % of control | endpoint: mean survival time, dose: 200.0 mg/kg/injection, schedule: Q01DX009 (ip), vehicle: water 117 % of control and 108 % of control | endpoint: mean survival time, dose: 400.0 mg/kg/injection, schedule: Q01DX009 (ip), vehicle: water 119 % of control

[C-]1=CC2C=CC1C1[C-]=CC21.[Cl][Pd][Cl] (configuration not stated)
inactive: [7] 94 % of control

C=CCCCCCCCCC(=O)Nc1cc2c3c(c1)CCCN3CCC2
inactive: endpoint: mean survival time, dose: 50.0 mg/kg/injection, schedule: Q01DX009 (ip), vehicle: saline with Tween-80 97 % of control | [8] 101 % of control | [2] 93 % of control

NC(=S)Nc1ccccn1
inactive: [5] 100 % of control | [6] 102 % of control | [2] 93 % of control

CSC(=NC#N)N(C)C
inactive: endpoint: mean survival time, dose: 25.0 mg/kg/injection, schedule: Q04DX003 (ip), vehicle: saline sonified 105 % of control | endpoint: mean survival time, dose: 50.0 mg/kg/injection, schedule: Q04DX003 (ip), vehicle: saline sonified 95 % of control | [9] 114 % of control

CC(=O)Nc1c[n+]([O-])cc2ccccc12
inactive: [8] 105 % of control | [2] 94 % of control | [10] 98 % of control | [3] 96 % of control | [11] 100 % of control | [4] 94 % of control

COC1(c2ccccc2)c2ccccc2C(OC)(c2ccccc2)c2cc(Cl)ccc21 (configuration not stated)
inactive: endpoint: mean survival time, dose: 100.0 mg/kg/injection, schedule: Q01DX001 (ip), vehicle: Klucel (hydroxypropylcellulose) (HPC) 96 % of control | endpoint: mean survival time, dose: 200.0 mg/kg/injection, schedule: Q01DX001 (ip), vehicle: Klucel (hydroxypropylcellulose) (HPC) 89 % of control

CN=NCCO
inactive: endpoint: mean survival time, dose: 25.0 mg/kg/injection, schedule: Q01DX009 (ip), vehicle: saline 104 % of control | endpoint: mean survival time, dose: 50.0 mg/kg/injection, schedule: Q01DX009 (ip), vehicle: saline 96 % of control | endpoint: mean survival time, dose: 100.0 mg/kg/injection, schedule: Q01DX001 (ip), vehicle: saline 94 % of control | endpoint: mean survival time, dose: 100.0 mg/kg/injection, schedule: Q01DX009 (ip), vehicle: saline 100 % of control | endpoint: mean survival time, dose: 200.0 mg/kg/injection, schedule: Q01DX001 (ip), vehicle: saline 94 % of control

CCOC(=O)/C(C#N)=C1/C=CC=CN1
inactive: [8] 98 % of control | [2] 102 % of control | [10] 102 % of control | [3] 110 % of control | [11] 100 % of control | [4] 103 % of control

O=C(O)c1ccc([N+](=O)[O-])cc1.[Ag]
inactive: endpoint: mean survival time, dose: 3.13 mg/kg/injection, schedule: Q01DX009 (ip), vehicle: saline with Tween-80 102 % of control | [12] 102 % of control | [13] 96 % of control | [7] 98 % of control | [14] 96 % of control

C=CC(=O)O
inactive: endpoint: mean survival time, dose: 1.56 mg/kg/injection, schedule: Q04DX003 (ip), vehicle: saline with Tween-80 107 % of control | endpoint: mean survival time, dose: 3.12 mg/kg/injection, schedule: Q04DX003 (ip), vehicle: saline with Tween-80 109 % of control | [12] 97 % of control | endpoint: mean survival time, dose: 6.25 mg/kg/injection, schedule: Q04DX003 (ip), vehicle: Klucel (hydroxypropylcellulose) (HPC) 90 % of control | [13] 101 % of control | endpoint: mean survival time, dose: 9.2 mg/kg/injection, schedule: Q01DX009 (ip), vehicle: acetone 89 % of control | [7] 92 % of control | endpoint: mean survival time, dose: 12.5 mg/kg/injection, schedule: Q04DX003 (ip), vehicle: Klucel (hydroxypropylcellulose) (HPC) 96 % of control | [14] 91 % of control | [5] 97 % of control

CC(=O)N/N=C/C(C)(C)C(C)(C)/C=N/NC(C)=O
inactive: endpoint: mean survival time, dose: 100.0 mg/kg/injection, schedule: Q04DX002 (ip), vehicle: saline with Tween-80 103 % of control | endpoint: mean survival time, dose: 200.0 mg/kg/injection, schedule: Q04DX002 (ip), vehicle: saline with Tween-80 122 % of control

CCOC(=O)c1ccc(OC(=O)Nc2ccccc2OC)cc1
inactive: [8] 96 % of control | [2] 103 % of control | [10] 92 % of control | [3] 100 % of control | [11] 94 % of control | [4] 102 % of control

NNC(=O)COc1ccccc1
inactive: endpoint: mean survival time, dose: 25.0 mg/kg/injection, schedule: Q04DX003 (ip), vehicle: saline 101 % of control | endpoint: mean survival time, dose: 50.0 mg/kg/injection, schedule: Q04DX003 (ip), vehicle: saline 101 % of control | [1] 103 % of control

C#CCOC1CCCC1O (configuration not stated)
inactive: endpoint: mean survival time, dose: 100.0 mg/kg/injection, schedule: Q04DX003 (ip), vehicle: acetone 101 % of control

COC(=O)C1C2C=CC(CC2)C1C(=O)OC (configuration not stated)
inactive: [9] 103 % of control | endpoint: mean survival time, dose: 200.0 mg/kg/injection, schedule: Q01DX001 (ip), vehicle: saline with Tween-80 88 % of control | endpoint: mean survival time, dose: 400.0 mg/kg/injection, schedule: Q01DX001 (ip), vehicle: saline with Tween-80 103 % of control

O=C(O)CC1(Br)C(=O)Nc2ccccc21 (configuration not stated)
inactive: endpoint: mean survival time, dose: 100.0 mg/kg/injection, schedule: Q04DX003 (ip), vehicle: Klucel (hydroxypropylcellulose) (HPC) 98 % of control | endpoint: mean survival time, dose: 200.0 mg/kg/injection, schedule: Q04DX003 (ip), vehicle: Klucel (hydroxypropylcellulose) (HPC) 102 % of control | endpoint: mean survival time, dose: 400.0 mg/kg/injection, schedule: Q04DX003 (ip), vehicle: Klucel (hydroxypropylcellulose) (HPC) 98 % of control

Source: PubChem BioAssay AID256 (DTP/NCI, 2004)
